Laboratory results reported in ChEMBL document CHEMBL1201862, “PubChem BioAssay data set” (2004).
The source made the active and inactive calls.

Columns and labels:
[1] = biological target: Transitional endoplasmic reticulum ATPase (Homo sapiens, UniProt P55072, C522A); assay: C522A mutant p97 ATPase inhibitors, dose response, counter-screen for p97 inhibitor project, biochemical, luminescence (AID 1544)
[2] = biological target: Transitional endoplasmic reticulum ATPase (Homo sapiens, UniProt P55072); assay: p97 ATPase inhibitors, dose response, biochemical (AID 1534)
[3] = antiviral protection against BTV-induced cell death – arbovirus, BSR cells, confirmation (AID 1250); type: functional;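 note: protection from viral cytopathic effect measured as cell viability by ATP luminescence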
[4] = biological target: Heat shock protein HSP 90-alpha (Homo sapiens, UniProt P07900); type: functional, organism-based
[5] = biological target: Serine/threonine-protein phosphatase PP1-alpha catalytic subunit (Homo sapiens, UniProt P62136); assay: inhibition of protein phosphatase 1 activity – biochemical, fluorescence, dose response (AID 2403);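 note: phosphatase turnover of OMFP into fluorescent 3-O-methylfluorescein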
[6] = biological target: Serine/threonine-protein phosphatase (Homo sapiens, UniProt Q9BPW0); assay: Counterscreen for inhibitors of PP1: fluorescence-based biochemical high throughput dose response assay to identify inhibitors of Protein Phosphatase 5 (PP5). [Related pubchem assays: 2034 (Summary (PP5 inhibitors)), 1987 (PP5 inhibitors in singlate), 2235 (PP1 inhibitors in singlate)]
[7] = biological target: T1, Replicative DNA helicase DnaB (Mycobacterium tuberculosis, UniProt P9WMR3); assay: DnaB intein splicing inhibitors, dose response, biochemical, cell-free fluorescence (AID 449749); type: functional
T1 sequence (P9WMR3 whole entry): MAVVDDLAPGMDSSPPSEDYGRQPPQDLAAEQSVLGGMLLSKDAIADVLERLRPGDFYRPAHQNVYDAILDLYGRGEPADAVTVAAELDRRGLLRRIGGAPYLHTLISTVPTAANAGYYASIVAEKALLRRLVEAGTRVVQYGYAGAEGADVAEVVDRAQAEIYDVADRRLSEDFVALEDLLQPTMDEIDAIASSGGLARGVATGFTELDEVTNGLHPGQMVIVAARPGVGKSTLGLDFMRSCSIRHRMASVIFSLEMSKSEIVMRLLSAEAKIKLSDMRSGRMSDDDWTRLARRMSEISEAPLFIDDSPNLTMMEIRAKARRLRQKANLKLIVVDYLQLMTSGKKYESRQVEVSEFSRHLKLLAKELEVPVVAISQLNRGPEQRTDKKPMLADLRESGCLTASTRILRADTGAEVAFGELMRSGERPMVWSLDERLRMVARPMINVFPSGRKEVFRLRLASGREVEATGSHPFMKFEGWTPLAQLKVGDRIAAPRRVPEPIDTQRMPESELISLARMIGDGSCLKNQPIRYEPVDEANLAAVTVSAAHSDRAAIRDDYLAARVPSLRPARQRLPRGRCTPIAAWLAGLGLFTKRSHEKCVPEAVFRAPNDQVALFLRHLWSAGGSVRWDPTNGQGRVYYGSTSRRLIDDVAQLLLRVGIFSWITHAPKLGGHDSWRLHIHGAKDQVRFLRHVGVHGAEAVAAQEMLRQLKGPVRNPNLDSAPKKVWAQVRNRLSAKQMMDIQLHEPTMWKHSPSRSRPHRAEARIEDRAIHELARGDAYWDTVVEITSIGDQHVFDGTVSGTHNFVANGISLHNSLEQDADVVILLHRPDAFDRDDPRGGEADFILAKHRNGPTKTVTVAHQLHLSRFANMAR

Protein RecA = biological target: T2, Protein RecA (Mycobacterium tuberculosis, UniProt P9WHJ3); assay: Fluorescence Cell-Free Homogeneous Dose Retest to Identify Inhibitors of RecA-Intein Splicing Activity. [Related pubchem assays (depositor defined):AID2097, AID2223, AID489010, AID492950]; type: functional
T2 sequence (P9WHJ3 whole entry): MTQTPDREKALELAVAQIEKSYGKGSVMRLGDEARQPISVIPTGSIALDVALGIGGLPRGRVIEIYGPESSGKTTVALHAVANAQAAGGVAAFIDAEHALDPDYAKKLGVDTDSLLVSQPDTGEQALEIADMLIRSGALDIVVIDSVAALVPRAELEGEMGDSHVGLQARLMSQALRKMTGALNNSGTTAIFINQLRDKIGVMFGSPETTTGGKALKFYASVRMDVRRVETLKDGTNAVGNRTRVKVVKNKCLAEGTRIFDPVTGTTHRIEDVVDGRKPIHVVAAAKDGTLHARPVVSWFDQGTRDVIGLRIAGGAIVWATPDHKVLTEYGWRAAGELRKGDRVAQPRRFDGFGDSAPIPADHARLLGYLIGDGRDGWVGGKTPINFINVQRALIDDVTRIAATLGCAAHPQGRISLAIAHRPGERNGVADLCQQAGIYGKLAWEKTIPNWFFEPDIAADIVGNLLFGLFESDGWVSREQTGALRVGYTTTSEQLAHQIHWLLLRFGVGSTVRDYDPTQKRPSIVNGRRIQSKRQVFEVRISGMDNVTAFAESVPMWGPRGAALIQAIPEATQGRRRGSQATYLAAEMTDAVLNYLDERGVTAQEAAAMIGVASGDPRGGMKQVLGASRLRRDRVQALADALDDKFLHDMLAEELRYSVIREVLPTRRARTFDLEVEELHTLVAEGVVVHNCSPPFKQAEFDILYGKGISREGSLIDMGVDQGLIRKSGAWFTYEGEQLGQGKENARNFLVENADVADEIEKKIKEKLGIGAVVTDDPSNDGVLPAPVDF

Genome polyprotein = Genome polyprotein (dengue virus type 2, UniProt P29990); assay: flavivirus cap methylation enzyme inhibition – biochemical, confirmation dose response, primary screen (AID 588689); type: functional
[8] = biological target: Dual specificity tyrosine-phosphorylation-regulated kinase 1A (Rattus norvegicus, UniProt Q63470); type: biochemical, Homo sapiens
[9] = Counterscreen for IDE inhibitors: Luminescence-based cell-based high throughput dose response assay to identify compounds that are cytotoxic to HEK cells. [Related pubchem assays: 434962 (Primary screen (IDE inhibitors in singlicate)), 449730 (Counterscreen (Cytotoxicity in triplicate)), 435028 (Confirmation (IDE inhibitors in triplicate)) …; type: functional; settings: HEK293
Insulin-degrading enzyme = biological target: T3, Insulin-degrading enzyme (Homo sapiens, UniProt P14735); assay: Dose Response: Fluorescence polarization-based cell-based high throughput dose response assay for inhibitors of insulin-degrading enzyme (IDE). [Related pubchem assays: 434962 (Primary screen (IDE inhibitors in singlicate)), 449730 (Counterscreen (Cytotoxicity in triplicate)), 435028 (Confirmation (IDE inhibitors in triplicate)), 434984 (Summary …; type: functional
T3 sequence (P14735 whole entry): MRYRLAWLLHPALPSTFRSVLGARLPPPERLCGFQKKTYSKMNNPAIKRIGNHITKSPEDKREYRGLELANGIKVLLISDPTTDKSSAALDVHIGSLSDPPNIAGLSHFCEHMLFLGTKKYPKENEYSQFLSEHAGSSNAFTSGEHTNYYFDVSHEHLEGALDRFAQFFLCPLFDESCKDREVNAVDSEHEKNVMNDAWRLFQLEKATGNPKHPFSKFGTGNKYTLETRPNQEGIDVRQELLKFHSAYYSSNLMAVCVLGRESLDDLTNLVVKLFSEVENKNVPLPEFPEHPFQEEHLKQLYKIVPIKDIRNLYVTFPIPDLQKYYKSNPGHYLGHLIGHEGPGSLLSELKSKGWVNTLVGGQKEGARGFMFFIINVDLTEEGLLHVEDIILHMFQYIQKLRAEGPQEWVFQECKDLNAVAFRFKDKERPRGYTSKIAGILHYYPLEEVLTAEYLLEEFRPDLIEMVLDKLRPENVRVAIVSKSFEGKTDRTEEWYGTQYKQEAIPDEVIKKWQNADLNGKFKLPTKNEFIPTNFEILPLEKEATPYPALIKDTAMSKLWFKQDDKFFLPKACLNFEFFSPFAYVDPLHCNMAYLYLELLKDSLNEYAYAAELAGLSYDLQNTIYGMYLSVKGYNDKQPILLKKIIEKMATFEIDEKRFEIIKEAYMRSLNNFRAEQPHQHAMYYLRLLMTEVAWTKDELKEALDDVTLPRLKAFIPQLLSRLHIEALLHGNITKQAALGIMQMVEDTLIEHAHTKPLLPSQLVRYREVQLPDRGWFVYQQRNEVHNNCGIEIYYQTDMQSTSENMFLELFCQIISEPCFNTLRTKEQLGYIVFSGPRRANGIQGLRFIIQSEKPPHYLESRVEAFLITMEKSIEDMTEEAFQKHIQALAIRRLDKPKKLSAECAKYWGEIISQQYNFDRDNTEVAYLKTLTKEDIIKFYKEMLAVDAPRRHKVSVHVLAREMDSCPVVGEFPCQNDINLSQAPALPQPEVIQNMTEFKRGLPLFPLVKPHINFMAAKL

Sequence of Serine/threonine-protein phosphatase (Q9BPW0 whole entry): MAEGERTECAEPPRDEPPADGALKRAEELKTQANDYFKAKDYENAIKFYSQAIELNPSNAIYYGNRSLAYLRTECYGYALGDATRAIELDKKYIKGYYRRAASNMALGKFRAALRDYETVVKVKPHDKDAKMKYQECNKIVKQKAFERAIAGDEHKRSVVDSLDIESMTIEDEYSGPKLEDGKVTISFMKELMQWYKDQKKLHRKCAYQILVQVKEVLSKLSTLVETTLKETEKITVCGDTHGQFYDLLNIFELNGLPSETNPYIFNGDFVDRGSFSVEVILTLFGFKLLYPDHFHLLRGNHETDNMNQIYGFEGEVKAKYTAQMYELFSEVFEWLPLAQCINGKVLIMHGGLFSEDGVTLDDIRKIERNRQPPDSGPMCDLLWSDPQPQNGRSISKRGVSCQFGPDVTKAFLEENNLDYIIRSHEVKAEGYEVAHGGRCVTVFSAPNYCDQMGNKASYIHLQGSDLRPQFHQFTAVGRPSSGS
Sequence of Serine/threonine-protein phosphatase PP1-alpha catalytic subunit (P62136 whole entry): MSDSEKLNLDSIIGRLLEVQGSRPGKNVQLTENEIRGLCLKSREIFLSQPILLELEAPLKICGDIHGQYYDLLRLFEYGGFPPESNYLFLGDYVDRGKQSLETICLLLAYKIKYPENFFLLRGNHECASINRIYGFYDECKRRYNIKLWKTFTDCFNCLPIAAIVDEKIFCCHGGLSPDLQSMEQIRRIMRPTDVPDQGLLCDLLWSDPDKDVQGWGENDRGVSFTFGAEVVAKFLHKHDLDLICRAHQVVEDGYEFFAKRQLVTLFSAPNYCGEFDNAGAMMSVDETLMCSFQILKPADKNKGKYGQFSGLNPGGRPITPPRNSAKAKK
Sequence of Transitional endoplasmic reticulum ATPase (Homo sapiens, UniProt P55072, C522A) (P55072 2-806 C522A limits assumed): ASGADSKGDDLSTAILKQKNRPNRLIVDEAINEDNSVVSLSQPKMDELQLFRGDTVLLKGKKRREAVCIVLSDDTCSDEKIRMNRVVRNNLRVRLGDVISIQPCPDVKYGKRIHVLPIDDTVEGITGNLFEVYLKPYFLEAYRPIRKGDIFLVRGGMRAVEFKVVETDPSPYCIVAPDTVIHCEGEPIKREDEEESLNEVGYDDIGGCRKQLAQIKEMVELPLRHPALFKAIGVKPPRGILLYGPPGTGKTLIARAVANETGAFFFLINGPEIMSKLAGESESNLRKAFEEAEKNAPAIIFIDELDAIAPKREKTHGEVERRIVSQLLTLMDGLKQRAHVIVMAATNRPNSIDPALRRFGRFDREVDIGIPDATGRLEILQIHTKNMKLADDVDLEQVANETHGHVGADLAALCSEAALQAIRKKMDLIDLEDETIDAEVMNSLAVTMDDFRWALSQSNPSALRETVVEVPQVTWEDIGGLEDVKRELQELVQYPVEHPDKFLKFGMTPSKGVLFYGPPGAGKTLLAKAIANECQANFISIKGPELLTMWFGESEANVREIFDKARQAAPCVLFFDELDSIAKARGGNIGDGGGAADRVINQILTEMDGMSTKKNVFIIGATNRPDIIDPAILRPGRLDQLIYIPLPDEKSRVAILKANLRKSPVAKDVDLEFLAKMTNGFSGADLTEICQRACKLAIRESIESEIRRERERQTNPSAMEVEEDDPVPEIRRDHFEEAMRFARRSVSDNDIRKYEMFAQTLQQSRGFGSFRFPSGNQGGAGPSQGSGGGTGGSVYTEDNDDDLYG
Sequence of Genome polyprotein (P29990 2492-3391 limits assumed): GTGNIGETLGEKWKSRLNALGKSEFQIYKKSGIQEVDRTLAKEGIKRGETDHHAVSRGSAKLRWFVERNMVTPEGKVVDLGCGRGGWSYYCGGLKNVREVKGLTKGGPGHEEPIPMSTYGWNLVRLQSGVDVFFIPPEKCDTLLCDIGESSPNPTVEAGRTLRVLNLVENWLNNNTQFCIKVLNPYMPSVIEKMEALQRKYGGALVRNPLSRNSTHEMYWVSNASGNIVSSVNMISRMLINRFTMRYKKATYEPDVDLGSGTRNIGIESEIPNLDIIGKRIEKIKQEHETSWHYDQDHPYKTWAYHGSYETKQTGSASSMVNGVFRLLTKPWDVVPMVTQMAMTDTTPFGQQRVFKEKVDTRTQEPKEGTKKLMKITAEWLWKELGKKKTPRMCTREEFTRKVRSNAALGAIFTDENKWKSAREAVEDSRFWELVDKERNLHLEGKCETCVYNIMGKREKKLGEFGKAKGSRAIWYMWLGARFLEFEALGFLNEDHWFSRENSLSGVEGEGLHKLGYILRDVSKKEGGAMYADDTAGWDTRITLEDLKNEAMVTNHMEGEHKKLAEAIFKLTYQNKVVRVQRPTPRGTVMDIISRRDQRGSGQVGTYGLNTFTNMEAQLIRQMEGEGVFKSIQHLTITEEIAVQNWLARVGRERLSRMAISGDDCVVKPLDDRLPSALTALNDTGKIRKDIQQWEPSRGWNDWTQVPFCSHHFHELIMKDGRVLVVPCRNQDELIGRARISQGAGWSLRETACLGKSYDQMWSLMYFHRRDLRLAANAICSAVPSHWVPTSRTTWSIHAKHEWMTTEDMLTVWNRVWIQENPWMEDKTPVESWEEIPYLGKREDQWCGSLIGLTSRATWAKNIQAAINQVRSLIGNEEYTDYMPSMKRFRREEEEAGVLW
Sequence of Transitional endoplasmic reticulum ATPase (Homo sapiens, UniProt P55072) (P55072 whole entry): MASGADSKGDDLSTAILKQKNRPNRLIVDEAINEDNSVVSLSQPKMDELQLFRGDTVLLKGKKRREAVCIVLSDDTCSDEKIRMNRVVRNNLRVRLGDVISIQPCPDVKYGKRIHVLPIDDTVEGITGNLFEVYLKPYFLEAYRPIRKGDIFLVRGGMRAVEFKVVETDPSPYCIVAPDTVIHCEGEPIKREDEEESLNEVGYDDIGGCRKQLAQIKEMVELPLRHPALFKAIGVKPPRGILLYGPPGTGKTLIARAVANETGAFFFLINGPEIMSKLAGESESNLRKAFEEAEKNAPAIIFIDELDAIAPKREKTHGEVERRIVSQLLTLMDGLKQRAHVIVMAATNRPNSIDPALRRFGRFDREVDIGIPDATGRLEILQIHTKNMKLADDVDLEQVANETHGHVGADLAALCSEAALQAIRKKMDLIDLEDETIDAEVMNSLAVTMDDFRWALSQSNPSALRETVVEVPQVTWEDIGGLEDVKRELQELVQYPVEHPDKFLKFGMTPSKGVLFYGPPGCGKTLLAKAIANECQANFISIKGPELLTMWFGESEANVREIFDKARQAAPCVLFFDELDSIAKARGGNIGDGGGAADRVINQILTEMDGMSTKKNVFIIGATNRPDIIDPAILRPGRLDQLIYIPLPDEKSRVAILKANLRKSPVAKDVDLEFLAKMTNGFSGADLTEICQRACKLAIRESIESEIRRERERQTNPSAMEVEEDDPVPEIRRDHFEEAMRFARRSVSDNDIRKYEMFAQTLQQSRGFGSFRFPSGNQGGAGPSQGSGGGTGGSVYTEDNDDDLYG

## O=C(O)c1cccc(NN=C2c3ccccc3-c3ccccc32)c1
[1]
  IC50: > 50 µM (not active)
[2]
  IC50: 50 µM (not active)
[3]
  IC50: 23.9 µM (active)
[4]
  AC50: 8.32 µM (active)

## O=C(O)CC1OCC=C2CN3CCC45C6=CC(=O)C(O)=C([N+](=O)[O-])C6=NC4C1C2CC35 (configuration not stated)
[5]
  IC50: 1.97 µM (active)
[6]
  IC50: > 0.276 µM (active)
[7]
  AC50: 6.67 µM (active)
Protein RecA
  EC50: 7.02 µM (active)
Genome polyprotein
  IC50: > 100 µM (active)
[8]
  AC50: 3.17 µM (active)

## CCCN1C(=O)/C(=C/c2ccc(N3CCOCC3)cc2)NC1=S
[9]
  IC50: 19 µM (not active)
Insulin-degrading enzyme
  IC50: 33.1 µM (not active)
